In US8569267B2, “Tetracyclic tetrahydrofuran derivatives containing cyclic amine side chain” (Janssen Pharmaceutica, NV, priority 2005, dated 2013):

Key:
[1] = target: T1, human cloned 5-HT2A receptor, expressed in L929 cells (Homo sapiens, UniProt P28223); assay: In vitro binding affinity for 5-HT2A receptor ([125I]R91150 radioligand binding); conditions: human cloned 5-HT2A receptor in L929 cells, [125I]R91150; for IC50: read-out: 5-HT2A pIC50 (converted)
T1 construct: expressed in transfected cells; host or cells: L929 cells
Summary of the method: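 Competition radioligand binding to human cloned 5-HT2A receptor expressed in L929 cells, using [125I]R91150 with test compound at various concentrations. At equilibrium, receptor-bound radioactivity was separated from free and counted. Affinity reflects inhibition of radioligand binding.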

[2] = target: T2, human cloned 5-HT2C receptor, expressed in CHO cells (Homo sapiens, UniProt P28335); assay: In vitro binding affinity for 5-HT2C receptor ([3H]mesulergine radioligand binding); conditions: human cloned 5-HT2C receptor; for IC50: read-out: 5-HT2C pIC50 (converted)
T2 construct: expressed in transfected cells; host or cells: CHO cells
T2 sequence (P28335 33-458): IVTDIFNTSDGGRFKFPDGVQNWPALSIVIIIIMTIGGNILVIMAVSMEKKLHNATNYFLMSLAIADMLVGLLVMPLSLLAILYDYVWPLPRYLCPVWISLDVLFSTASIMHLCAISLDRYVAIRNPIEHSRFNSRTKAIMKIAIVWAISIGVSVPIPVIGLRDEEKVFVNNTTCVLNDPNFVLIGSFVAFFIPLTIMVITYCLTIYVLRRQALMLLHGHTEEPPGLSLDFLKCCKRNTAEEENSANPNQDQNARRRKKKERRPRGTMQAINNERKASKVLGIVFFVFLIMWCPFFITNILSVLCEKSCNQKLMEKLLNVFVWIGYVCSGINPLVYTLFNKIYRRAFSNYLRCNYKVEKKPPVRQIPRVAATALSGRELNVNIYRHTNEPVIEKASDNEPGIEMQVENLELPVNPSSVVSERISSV
Summary of the method: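 Competition radioligand binding: varying test-compound concentrations incubated with receptor preparation and radioligand to binding equilibrium. Bound radioactivity separated from free and counted; affinity inferred from concentration-dependent inhibition of radioligand binding.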

[3] = target: T3, human Dopamine D2L receptor (Homo sapiens, UniProt P14416); assay: In vitro binding affinity for human D2L receptor ([3H]Spiperone binding); conditions: human D2L receptor-transfected CHO cell membranes; for IC50: read-out: D2L pIC50 (converted)
T3 construct: expressed in transfected cells; host or cells: CHO cells
Summary of the method: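 Membranes from CHO cells transfected with the receptor were incubated with [3H]Spiperone (diluted to 2 nmol/L before addition) and compound for 30 min at 37° C. Buffer was Tris-HCl, pH 7.7, with NaCl, CaCl2, MgCl2 and KCl, and non-specific binding was defined with 10^−6 mol/l Butaclamol. Bound radioactivity was collected by filtration, counted by scintillation, and competition curves calculated as percent specific binding.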

[4] = target: T4, NET (norepinephrine transporter) (Rattus norvegicus, UniProt Q63380); assay: In vitro determination of NET reuptake inhibition ([3H]Nixosetine binding, rat brain cortex); conditions: rat brain cortex; for IC50: read-out: NET pIC50 (converted)
T4 construct: Cortex from rat brain was collected and homogenised; from tissue; host or cells: rat brain cortex
Summary of the method: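 Rat cortex homogenised in Tris 50 mM, NaCl 120 mM, KCl 5 mM, pH 7.4 was used for competition binding against [3H]nisoxetine. Bound radioligand was collected by filtration on GF/B filters and counted by scintillation. Percentage specific binding and competition curves were derived.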

T1 sequence (P28223 whole entry): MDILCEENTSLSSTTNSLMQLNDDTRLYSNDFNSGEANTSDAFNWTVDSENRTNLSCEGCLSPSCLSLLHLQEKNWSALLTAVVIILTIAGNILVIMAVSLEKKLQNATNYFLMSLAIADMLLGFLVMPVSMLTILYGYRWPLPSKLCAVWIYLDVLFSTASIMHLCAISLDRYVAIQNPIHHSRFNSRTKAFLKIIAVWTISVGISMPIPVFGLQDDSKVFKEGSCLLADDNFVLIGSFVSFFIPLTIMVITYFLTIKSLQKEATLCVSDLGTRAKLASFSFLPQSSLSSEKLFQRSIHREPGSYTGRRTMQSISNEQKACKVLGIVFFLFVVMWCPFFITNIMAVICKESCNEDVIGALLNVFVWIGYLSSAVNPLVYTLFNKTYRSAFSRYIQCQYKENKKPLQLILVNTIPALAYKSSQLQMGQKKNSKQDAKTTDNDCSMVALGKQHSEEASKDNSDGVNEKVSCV
T4 sequence (Q63380 1-617): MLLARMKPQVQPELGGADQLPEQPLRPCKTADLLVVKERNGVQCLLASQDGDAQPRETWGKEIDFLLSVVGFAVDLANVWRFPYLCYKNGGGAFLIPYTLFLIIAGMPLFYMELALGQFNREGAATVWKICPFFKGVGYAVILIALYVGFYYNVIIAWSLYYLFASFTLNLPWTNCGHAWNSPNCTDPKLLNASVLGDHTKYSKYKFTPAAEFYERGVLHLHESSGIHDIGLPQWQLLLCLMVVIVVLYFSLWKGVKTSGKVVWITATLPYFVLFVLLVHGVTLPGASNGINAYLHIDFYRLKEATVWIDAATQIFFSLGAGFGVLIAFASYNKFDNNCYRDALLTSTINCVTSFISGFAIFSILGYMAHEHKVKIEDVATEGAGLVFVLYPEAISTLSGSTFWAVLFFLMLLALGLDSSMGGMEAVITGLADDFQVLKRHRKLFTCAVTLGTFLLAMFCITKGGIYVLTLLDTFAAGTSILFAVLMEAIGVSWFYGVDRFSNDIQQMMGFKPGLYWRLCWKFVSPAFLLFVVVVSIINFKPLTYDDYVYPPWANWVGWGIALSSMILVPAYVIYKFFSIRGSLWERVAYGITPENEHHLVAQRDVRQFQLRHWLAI
T3 sequence (P14416 whole entry): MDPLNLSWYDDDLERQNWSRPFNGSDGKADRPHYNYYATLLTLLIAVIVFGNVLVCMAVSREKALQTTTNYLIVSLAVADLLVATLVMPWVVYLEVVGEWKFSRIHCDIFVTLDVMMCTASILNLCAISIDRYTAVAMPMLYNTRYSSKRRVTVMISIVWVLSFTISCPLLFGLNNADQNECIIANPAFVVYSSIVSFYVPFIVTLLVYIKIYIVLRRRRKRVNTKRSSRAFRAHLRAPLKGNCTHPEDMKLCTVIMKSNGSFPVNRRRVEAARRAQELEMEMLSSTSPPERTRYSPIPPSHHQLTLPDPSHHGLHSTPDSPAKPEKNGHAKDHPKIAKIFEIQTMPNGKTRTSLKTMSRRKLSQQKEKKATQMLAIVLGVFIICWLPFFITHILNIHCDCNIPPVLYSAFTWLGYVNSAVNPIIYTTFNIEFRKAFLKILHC

| SMILES | IC50 [1] [µM] | IC50 [2] [µM] | IC50 [3] [µM] | IC50 [4] [µM] | 5-HT2A pIC50 [1] | 5-HT2C pIC50 [2] | D2L pIC50 [3] | NET pIC50 [4] |
| --- | --- | --- | --- | --- | --- | --- | --- | --- |
| O=C(NCCN1CCOCC1)C1CCN(CC2CC3c4ccccc4Cc4ccc(F)cc4C3O2)CC1 (stereo not shown) [Compound 181] | 0.00479 | 0.00759 | 0.0575 | > 10 |  |  |  |  |
| COc1ccc(OCC2CCN(C[C@H]3C[C@@H]4c5ccccc5Cc5ccc(F)cc5[C@@H]4O3)C2)cc1 (stereo partly shown) [Compound 25] | 0.00158 | 0.00468 | 0.00603 | 2.19 |  |  |  |  |
| Fc1ccc2c(c1)C1OC(CN3CCN(CC=Cc4ccccc4)CC3)CC1c1ccccc1C2 (stereo not shown) [Compound 48] | 0.0309 | 0.0324 | 0.00955 | 2.09 |  |  |  |  |
| COC(CNC(=O)N1CCN(CC2CC3c4ccccc4Cc4ccc(F)cc4C3O2)CC1)OC (stereo not shown) [Compound 91] | 0.00115 | 0.0148 | 0.0372 | 4.07 |  |  |  |  |
| OCC1CCCN(C[C@H]2C[C@@H]3c4ccccc4Cc4ccc(F)cc4[C@@H]3O2)C1 (stereo partly drawn) [Compound 147, [2R-(2α, 3aα, 12bβ)]-(3′RS)-[1-(11-fluoro-3,3a,8,12b-tetrahydro-2H-1-oxa-dibenzo[e,h]azulen-2-ylmethyl)-piperidin-3-yl]-methanol.oxalate (1:1)] | 0.0011 | 0.00126 | 0.00479 | > 10 |  |  |  |  |
| Fc1ccc2c(c1)[C@@H]1O[C@@H](CN3CCCNCC3)C[C@@H]1c1ccccc1C2.O=C(O)C(=O)O.O=C(O)C(=O)O [Compound 267] |  |  |  |  | 7.84 | 7.65 | 6.81 | 5.10 |
| N#Cc1cccc(CN2CCN(CC3CC4c5ccccc5Cc5ccc(F)cc5C4O3)CC2)c1 (stereo not shown) [Compound 70] | 0.00724 | 0.0158 | 0.0204 | 0.708 |  |  |  |  |
| CCOC(=O)CNC(=S)N1CCN(CC2CC3c4ccccc4Cc4ccc(F)cc4C3O2)CC1 (stereo not shown) [Compound 110] | 0.00617 | 0.0479 | 0.0363 | 5.75 |  |  |  |  |
| O=C(NCCC(c1ccccc1)c1ccccc1)C1CCN(CC2CC3c4ccccc4Cc4ccc(F)cc4C3O2)CC1 (stereo not shown) [Compound 198] | 0.00813 | 0.0162 | 0.0251 | 7.59 |  |  |  |  |
| O=C(Nc1cccc2cnccc12)C1CCN(CC2CC3c4ccccc4Cc4ccc(F)cc4C3O2)CC1 (stereo not shown) [Compound 192] | < 0.01 | 0.0038 | 0.0112 | 7.41 |  |  |  |  |
| Fc1ccc2c(c1)C1OC(CN3CCN(Cc4cc5ccccc5o4)CC3)CC1c1ccccc1C2 (stereo not shown) [Compound 64] | 0.0263 | 0.0288 | 0.0155 | 2.69 |  |  |  |  |
| Fc1ccc2c(c1)C1OC(CN3CCN(Cc4ccc5ccccc5c4)CC3)CC1c1ccccc1C2 (stereo not shown) [Compound 74] | 0.126 | 0.162 | 0.0309 | 3.16 |  |  |  |  |
| O=C(NCc1cccc(C(F)(F)F)c1)N1CCN(CC2CC3c4ccccc4Cc4ccc(F)cc4C3O2)CC1 (stereo not shown) [Compound 101] | 0.00575 | 0.012 | 0.0174 | 8.91 |  |  |  |  |
| Fc1ccc2c(c1)[C@@H]1O[C@@H](CN3CC=CC3)C[C@@H]1c1ccccc1C2.O=C(O)C(=O)O [Compound 266] |  |  |  |  | 8.09 | 8.42 | 7.42 | 6.61 |
| COc1ccc(NC(=S)N2CCN(CC3CC4c5ccccc5Cc5ccc(F)cc5C4O3)CC2)cc1 (stereo not shown) [Compound 112] | 0.00331 | 0.0219 | 0.0204 | 0.933 |  |  |  |  |
| O=[N+]([O-])c1ccc(-c2ccc(CN3CCN(CC4CC5c6ccccc6Cc6ccc(F)cc6C5O4)CC3)o2)cc1 (stereo not shown) [Compound 63] | 0.0275 | 0.0501 | 0.0741 | 0.562 |  |  |  |  |
| O=C(NCC(O)CO)C1CCN(CC2CC3c4ccccc4Cc4ccc(F)cc4C3O2)CC1 (stereo not shown) [Compound 179] | < 0.01 | 0.0038 | 0.038 | > 10 |  |  |  |  |

| SMILES | IC50 [1] [µM] | IC50 [2] [µM] | IC50 [3] [µM] | IC50 [4] [µM] | 5-HT2A pIC50 [1] | 5-HT2C pIC50 [2] | D2L pIC50 [3] | NET pIC50 [4] |
| --- | --- | --- | --- | --- | --- | --- | --- | --- |
| O=C(NC1CCCCCC1)C1CCN(CC2CC3c4ccccc4Cc4ccc(F)cc4C3O2)CC1 (stereo not shown) [Compound 193] | 0.00141 | 0.00263 | 0.0155 | 5.25 |  |  |  |  |
| N#Cc1cccc(OC2CCN(CC3CC4c5ccccc5Cc5ccc(F)cc5C4O3)C2)c1 (mixture of isomers) [Compound 29] | 0.00724 | 0.00339 | 0.0145 | 8.51 |  |  |  |  |
| COCC1CCCN1CC1CC2c3ccccc3Cc3ccc(F)cc3C2O1 (mixture of isomers) [Compound 38] | 0.0135 | 0.0155 | 0.224 | 5.13 |  |  |  |  |
| COC(=O)C1CCN(C[C@H]2C[C@@H]3c4ccccc4Cc4ccc(F)cc4[C@@H]3O2)C1 (stereo partly shown) [Compound 12] | 0.00117 | 0.00204 | 0.00631 | 0.759 |  |  |  |  |
| Fc1ccc2c(c1)C1OC(CN3CCC(N4CCCCC4)CC3)CC1c1ccccc1C2 (stereo not shown) [Compound 172] | 0.0151 | 0.0158 | 0.0437 | 6.76 |  |  |  |  |
| O=C(NCc1ccccc1)OCC1CCN(CC2CC3c4ccccc4Cc4ccc(F)cc4C3O2)C1 (mixture of isomers) [Compound 24] | 0.00182 | 0.00145 | 0.00427 | 2.69 |  |  |  |  |
| COc1cccc(N2CCN(CC3CC4c5ccccc5Cc5ccc(F)cc5C4O3)CC2)n1 (stereo not shown) [Compound 118] | 0.0049 | 0.00759 | 0.0263 | 2.82 |  |  |  |  |
| O=C(Nc1ccccc1)OCC1CCN(CC2CC3c4ccccc4Cc4ccc(F)cc4C3O2)C1 (mixture of isomers) [Compound 22] | 0.00309 | 0.00372 | 0.00501 | 2.51 |  |  |  |  |
| O=C(C1CC1)N1CCN(C[C@H]2C[C@@H]3c4ccccc4Cc4ccc(F)cc4[C@@H]3O2)CC1 [Compound 78, [2R-(2α, 3aα, 12bβ)]cyclopropyl-[4-(11-fluoro-3,3a, 8,12b-tetrahydro-2H-1-oxa-dibenzo[e,h]azulen-2-ylmethyl)-piperazin-1-yl]-methanone.oxalate (1:1)] | 0.00224 | 0.00891 | 0.0363 | > 10 |  |  |  |  |
| OC1(c2ccc(F)cc2)CCN(CC2CC3c4ccccc4Cc4ccc(F)cc4C3O2)C1 (mixture of isomers) [Compound 41] | 0.00182 | 0.00229 | 0.00427 | 7.08 |  |  |  |  |
| Fc1ccc2c(c1)C1OC(CN3CCN(c4ccccn4)CC3)CC1c1ccccc1C2 (stereo not shown) [Compound 117] | 0.00148 | 0.00251 | 0.0155 | 4.57 |  |  |  |  |
| O=C(c1ccccc1)N1CCN(CC2CC3c4ccccc4Cc4ccc(F)cc4C3O2)CC1 (stereo not drawn) [Compound 82, [2R-(2α, 3aα, 12bβ)][4-(11-fluoro-3,3a,8,12b-tetrahydro-2H-1-oxa-dibenzo[e,h]-azulen-2-ylmethyl)-piperazin-1-yl]-phenyl-methanone.oxalate (1:1)] | 0.00214 | 0.00324 | 0.0195 | > 10 |  |  |  |  |
| O=C(OC1CCN(CC2CC3c4ccccc4Cc4ccc(F)cc4C3O2)C1)c1ccc(F)cc1 (mixture of isomers) [Compound 16] | 0.00562 | 0.00282 | 0.00513 | 2 |  |  |  |  |
| C=CC1(O)CCN(CC2CC3c4ccccc4Cc4ccc(F)cc4C3O2)C1 (stereo not shown) [Compound 40] | 0.00123 | 0.000275 | 0.00447 | > 10 |  |  |  |  |
| CN1c2ccccc2[C@H]2C[C@@H](CN3CCC(O)C3)O[C@@H]2c2ccccc21 (relative stereo) [Compound 264] | 0.166 | 0.0191 | 2.24 | 4.17 |  |  |  |  |
| OC1CCN(C[C@H]2C[C@@H]3c4ccccc4Cc4ccc(F)cc4[C@@H]3O2)C1 (stereo partly drawn) [Compound 1, [2R-(2α, 3aα, 12bβ)]-(3′RS) 1-(11-fluoro-3,3a,8,12b-tetrahydro-2H-1-oxa-dibenzo[e,h]azulen-2-ylmethyl)-pyrrolidin-3-ol.oxalate (1:1)] | 0.000692 | 0.000372 | 0.00741 | 0.479 |  |  |  |  |
| CN(C)CCC1CN(C[C@H]2C[C@@H]3c4ccccc4Cc4ccc(F)cc4[C@@H]3O2)CCO1 (stereo partly shown) [Compound 132] | 0.0331 | 0.0331 | 0.389 | 5.75 |  |  |  |  |
